In PMC5413351, “Structural basis of protein translocation by the Vps4-Vta1 AAA ATPase” (eLife, 2017) one finds Kd data, which are given here for one compound.

Where a SMILES comes first, the peptide text is derived from it.

This assay concerns the target T1, Vps4^101-437-Hcp1 (UniProt P52917+Q9I747).
T1 construct: 6xHis (TEV-cleavable) (N, cleaved yes); Pseudomonas aeruginosa Hcp1 fusion partner (candidate entry Q9I747, HCP1_PSEAE); made in house; host or cells: E. coli BL21(DE3)RIL
T1 sequence (P52917+Q9I747 with tags, fused parts or gaps): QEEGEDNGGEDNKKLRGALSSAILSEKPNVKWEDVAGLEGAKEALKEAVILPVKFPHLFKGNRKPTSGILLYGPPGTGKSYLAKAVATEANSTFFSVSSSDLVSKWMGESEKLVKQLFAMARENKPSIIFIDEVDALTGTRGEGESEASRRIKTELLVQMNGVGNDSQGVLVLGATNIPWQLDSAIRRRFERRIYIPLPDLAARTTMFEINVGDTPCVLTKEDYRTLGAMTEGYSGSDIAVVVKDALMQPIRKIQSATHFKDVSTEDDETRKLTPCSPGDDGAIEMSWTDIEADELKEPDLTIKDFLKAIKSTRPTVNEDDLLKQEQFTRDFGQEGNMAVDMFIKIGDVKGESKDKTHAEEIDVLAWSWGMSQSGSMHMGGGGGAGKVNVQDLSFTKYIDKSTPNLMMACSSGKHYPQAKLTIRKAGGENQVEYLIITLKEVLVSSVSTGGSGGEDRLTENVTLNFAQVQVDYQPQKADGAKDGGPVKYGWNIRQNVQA
T1 sequence (Q06263 280-330 partner limits assumed): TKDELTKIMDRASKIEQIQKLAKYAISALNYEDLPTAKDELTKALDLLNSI
In words: Fluorescence polarization binding of fluorescently labeled ESCRT-III peptide to Vps4^101-437-Hcp1. The following applies: 2:1 Vta1^VSL:Vps4 subunits, 1 mM ADP·BeFx, 1 nM fluorescent peptide, 20 mM HEPES pH 7.4, 100 mM NaCl, 10 mM MgCl2, 1 mM DTT, room temperature; per Vps4 hexamer; global fit of four independent experiments. Further details: species or system S. cerevisiae. As to the method: Fluorescence polarization assay for ESCRT-III peptide binding
When equilibrium was reached, parallel and perpendicular fluorescence intensities were measured on a Biotek Synergy Neo HTS microplate reader using an excitation wavelength of 485 nm and an emission wavelength of 528 nm.

The Kd is the concentration at which binding is half-saturated. As for `CC[C@H](C)[C@H](NC(=O)[C@H](CCC(=O)O)NC(=O)[C@H](CC(=O)O)NC(=O)[C@H](CC(C)C)NC(=O)[C@@H](NC(=O)[C@H](CCCCN)NC(=O)[C@H](CC(N)=O)NC(=O)[C@@H](NC(=O)[C@@H](NC(=O)[C@H](CCC(=O)O)NC(=O)[C@H](CC(=O)O)NC(=O)c1ccc2c(c1)C(=O)OC21c2ccc(O)cc2Oc2cc(O)ccc21)[C@@H](C)CC)C(C)C)C(C)C)C(=O)NCC(=O)N[C@H](C(=O)N[C@@H](CC(=O)O)C(=O)N[C@@H](CC(C)C)C(=O)N[C@@H](CC(N)=O)C(=O)N[C@@H](CO)C(=O)N[C@@H](CCC(N)=O)C(=O)N[C@@H](CC(C)C)C(=O)N[C@@H](CCC(N)=O)C(N)=O)C(C)C` [Peptide ‘20’] (HELM PEPTIDE1{[O=C1OC2(c3ccc(O)cc3Oc3cc(O)ccc32)c2ccc(C(=O)[*:2])cc21].D.E.I.V.N.K.V.L.D.E.I.G.V.D.L.N.S.Q.L.Q.[am]}$$$$V2.0), the dissociation constant (Kd) was determined as 178 nM.
